Source: patent US8133851B2, “Heteroaroyl-substituted serine amides” (BASF SE, priority 2007, dated 2012)

melting point: 190 °C
SMILES: CNC(=O)C(NC(=O)c1cn(C)nc1C(F)(F)F)C1(OC(=O)N(C)C)CCC1 (stereo not shown) [Example 1, Dimethylcarbamic acid 1-{methylcarbamoyl-[(1-methyl-3-trifluoromethyl-1H-pyrazole-4-carbonyl)amino]methyl}cyclobutyl ester]
